Laboratory results as given in article PMC3124589 (Biochimica et biophysica acta, 2011).
Entries after “also recorded” stand apart in the source; their conditions may differ. Where two headings read alike, the source gives them in different places.

Legend:
mtDAPDC [1] = molecular target: T1, mtDAPDC (Mycobacterium tuberculosis, UniProt P9WIU7); assay: HPLC assay for reaction of mtDAPDC with alternate substrates; assay type: biochemical; conditions: reaction 25 °C, 12–16 hours; OPA derivatization
mtDAPDC [2] = molecular target: T1, mtDAPDC; assay: Steady-state coupled carbon dioxide assay, mtDAPDC; assay type: biochemical; conditions: for kcat / Km: errors in parentheses; for Km: meso-DAP value corrected for the 50% D,L-DAP present
mtDAPDC [3] = molecular target: T1, mtDAPDC; assay: Inhibition assay for mtDAPDC, coupled carbon dioxide assay; assay type: biochemical
yeast ODC = conditions: read-out: concentration necessary for 50% inhibition; cited from earlier work
S. cerevisiae ODC = S. cerevisiae ODC (Saccharomyces cerevisiae, UniProt P08432); assay: biochemical
[4] = D,L-DAP held at Km (400 μM), competitive inhibition assumed (eq 1)

T1 sequence (P9WIU7 whole entry, looked up): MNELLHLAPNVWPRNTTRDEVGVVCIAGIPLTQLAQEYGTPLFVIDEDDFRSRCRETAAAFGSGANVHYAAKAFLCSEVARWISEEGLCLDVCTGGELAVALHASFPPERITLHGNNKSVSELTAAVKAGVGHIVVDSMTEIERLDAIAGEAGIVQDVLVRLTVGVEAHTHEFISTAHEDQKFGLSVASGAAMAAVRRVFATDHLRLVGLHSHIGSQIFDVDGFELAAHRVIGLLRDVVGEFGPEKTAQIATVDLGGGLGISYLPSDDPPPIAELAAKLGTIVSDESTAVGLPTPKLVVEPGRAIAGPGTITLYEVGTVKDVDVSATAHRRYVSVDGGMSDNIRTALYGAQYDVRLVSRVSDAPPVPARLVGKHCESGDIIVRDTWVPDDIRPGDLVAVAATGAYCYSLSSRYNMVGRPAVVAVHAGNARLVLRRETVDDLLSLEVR
Chain of S. cerevisiae ODC (P08432 whole entry): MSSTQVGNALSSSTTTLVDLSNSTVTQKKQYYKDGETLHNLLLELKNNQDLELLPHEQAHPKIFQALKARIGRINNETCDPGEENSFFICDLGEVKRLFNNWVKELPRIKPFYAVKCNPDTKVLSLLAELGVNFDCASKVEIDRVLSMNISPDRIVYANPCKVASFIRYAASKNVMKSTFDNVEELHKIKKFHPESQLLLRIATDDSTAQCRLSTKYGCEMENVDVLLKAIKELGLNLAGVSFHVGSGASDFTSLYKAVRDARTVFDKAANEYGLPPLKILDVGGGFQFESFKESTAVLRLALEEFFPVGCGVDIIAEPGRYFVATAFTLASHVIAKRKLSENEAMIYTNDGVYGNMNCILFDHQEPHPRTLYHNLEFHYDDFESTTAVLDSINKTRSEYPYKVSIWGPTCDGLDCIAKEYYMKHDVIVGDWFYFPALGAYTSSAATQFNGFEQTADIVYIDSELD

Compound: N[C@H](CCC[C@@H](N)C(=O)O)C(=O)O [D,D-DAP]
- decarboxylation detected by HPLC (mtDAPDC [1]): decarboxylated
- kcat (mtDAPDC [2]): 1.8 (0.3) s^−1
- Km (mtDAPDC [2]): 17 mM
- kcat less than with the natural substrate (mtDAPDC [2]; relative to D,L-DAP): 4 fold
- kcat/KM lower than D,L-DAP (mtDAPDC [2]; relative to D,L-DAP): ~ 100 fold
- inhibition of the D,L-DAP reaction (mtDAPDC [3]; at concentrations of 6 mM (data not shown)): no detectable inhibition

Compound: N[C@@H](CCC[C@H](N)C(=O)O)C(=O)O [D,L-DAP, D,L-diaminopimelate]
- kcat (mtDAPDC [2]): 7.1 (0.1) s^−1
- Km (mtDAPDC [2]): 0.43 mM

Compound: NCCCC[C@@H](N)C(=O)O [D-lysine]
- decarboxylation detected by HPLC (mtDAPDC [1]): decarboxylated
- Ki (mtDAPDC [3]; [4]): 26 mM

Compound: NC(CCCC(N)C(=O)O)C(=O)O [L,L-DAP]
- decarboxylation detected by HPLC (mtDAPDC [1]): no detectable amounts of their decarboxylation products; also recorded: not decarboxylated
- Ki (mtDAPDC [3]; [4]): 1.6 mM
- binding weaker than D,L-DAP (mtDAPDC [3]; Ki compared with Km of D,L-DAP): ~ 4 fold

Compound: NCCCC[C@H](N)C(=O)O [L-lysine]
- decarboxylation detected by HPLC (mtDAPDC [1]): no detectable amounts of their decarboxylation products
- Ki (mtDAPDC [3]): 1.8 mM

Compound: NCCCCN [putrescine]
- IC50 (yeast ODC): 0.1 mM
- Ki (S. cerevisiae ODC): 0.25 ± 0.045 mM
